Source: publication PMC8541546, “Identification of HLA-A2-Restricted Mutant Epitopes from Neoantigens of Esophageal Squamous Cell Carcinoma” (Vaccines, 2021)

How the values were obtained:
[1] = system: peptide-pulsed T2A2 cells; assay: IFN-γ intracellular staining of peptide-induced T cells from donor PBMCs; assay type: cell-based, human; settings: PBMCs of HLA-A2+ donors B–F, DCs pulsed with 10 μg/mL peptide, three rounds
Procedure: (§1) DCs involve and play an important role in initiating CD8^+ T cell response. Consequently, ten HLA-A2^+ healthy donors’ PBMCs were isolated, autologous DCs were generated, and CTLs were induced according to the procedure described previously. In brief, PBMCs were seeded at a density of 5 × 10^6 cells/well in a 6-well plate, and after 3 h, the non-adherent cells were removed and cryopreserved for future incubation with mature autologous DCs. Differentiation of the adherent cells into dendritic cells was induced by GM-CSF (100 ng/mL, #300-03, PeproTech, Rocky Hill, NJ, USA) and IL-4 (100 ng/mL; #200-04, PeproTech, USA), with replenishment every 2 days. On day 5, maturation of DCs was induced using 100 ng/mL LPS (#L4516, Sigma-Aldrich, St. Louis, MO, USA), and maturation was checked on day 8 by flow cytometry (BD FACSCelesta™) using markers for anti-human HLA-DR, anti-human CD80, and anti-human CD86. Then, mature DCs (1 × 10^5) were pulsed with each 10 μg /mL individual peptide or no peptides (control) for 2 h at 37 °C. Next, peptide-pulsed DCs were used to prime the previously cryopreserved autologous peripheral blood lymphocytes (PBLs) at a DC/PBL ratio of 1:10 using complete RPMI-1640 media supplemented with 100 IU/mL rhIL-2 (#200-02, PeproTech, USA) and 10 ng/mL rhIL-7 (#200-07, PeproTech, USA). Half of the feeding medium was replenished every 2 days. After 7 days, PBLs were restimulated with freshly pulsed autologous DCs every 7 days.
When target cells were peptide-pulsed T2A2 cells (MUT peptide or its corresponding WT peptide), peptide-specific T cells (from HLA-A2^+ healthy donors B–F) stimulated by MUT peptides were co-cultured with these cells in the presence of BFA for 5 h. Then T cells were marked by anti-human CD3 and anti-human CD8α monoclonal antibody. Thirty minutes later, cells were fixed by fixation buffer (Thermo Scientific, Waltham, MA, USA) for thirty minutes and washed by permeabilization buffer (Thermo Scientific, USA). Permeabilized T cells were marked by anti-human IFN-γ monoclonal antibody.

[2] = target: T1, peptide/HLA-A*0201 complex (Homo sapiens, UniProt P04439, D140Y/D185E/D98H/E176V/E277Q/G131W/G231S/I119V/I121R/I166T/I218V/L300P/L318F/N151K/N90K/P208A/P217A/Q86G/Q94H/R138H/R169H/T345S); assay: peptide/MHC complex stabilization assay on T2A2 cells; assay type: binding; settings: T2A2 cells pulsed with 50 μg/mL peptide and 3 μg/mL β2-M 18 h, BFA 1 h; MFI at 0, 2, 4, 6 h; time of half losing MFI of 0 h
T1 construct: T2A2 cells (TAP-deficient HLA-A2 molecules overexpressing, cultured in IMDM medium); β2-M from Merck; host or cells: T2A2 cells
Procedure: For the stabilization test, T2A2 cells were pulsed with 50 μg/mL mutant peptide and 3 μg/mL β2-Microglobulin (β2-M, Merck, Kenilworth, NJ, USA) in IMDM (serum-free) medium for 18 h. After three times washing, free peptides were removed and brefeldin A (BFA, 10 μg/mL, BD Bioscience, San Diego, CA, USA) was added. BFA was removed after 1 h impeding, and the cells were incubated for additional time. Finally, T2A2 was marked with anti-human HLA-A2 PE-Cyanine7 for 30 min, then analyzed by FACS Calibur (BD Bioscience, USA). MFI of 0 h was set as 100%, and the time of half losing MFI of 0 h defined the dissociation complex 50 (DC50). DC50 was computed as follows: (MFI of 0 h-MFI of (2, 4, or 6 h))/MFI of 0 h × 100%.

[3] = system: KYSE140-MUT cells; assay: Intracellular cytokine assay with minigene-transfected tumor cells in vitro; assay type: cell-based, human; settings: donors G–K; KYSE140/KYSE150 transfected with WT or MUT minigene; IFN-γ and granzyme B
Procedure: as §1
Then two vectors were transduced into KYSE140 (HLA-A2^+) and KYSE150 (HLA-A2^−) to get KYSE140-MUT (HLA-A2^+, MUT peptide^+), KYSE140-WT (HLA-A2^+, MUT peptide^−), KYSE150-MUT (HLA-A2^−, MUT peptide^+) and KYSE150-WT (HLA-A2^−, MUT peptide^−) cells (see Supplementary Materials for details).
As for the transfected cells serving as target cells in the in vitro investigation, peptide-specific T cells (from HLA-A2^+ healthy donors G–K) induced by MUT peptides were co-cultured with tumor cell lines transfected with WT or MUT minigenes in IMDM medium in the presence of BFA for 5 h. […]

[4] = system: KYSE140-MUT cells; assay: Intracellular cytokine staining (IFN-γ) of CTLs from immunized Tg mice; assay type: in vivo, HLA-A2.1/K^b Tg mice; settings: 100 μg/mouse s.c. with CpG ODN 1826 once a week for three weeks; spleen lymphocytes re-stimulated with MUT peptide; KYSE140-MUT target cells; n = 5 per group
Procedure: To investigate whether neoepitopes could induce a peptide-specific T cell response in vivo, HLA-A2.1/K^b Tg mice were used and immunized according to the procedure de-scribed previously. In brief, mutant peptides or WH-mutant peptides (100 μg per mouse) with CpG-ODN 1826 (30 μg per mouse) were injected s.c. in the back of HLA-A2.1/K^b Tg mice (five mice per group, randomly grouped) once a week for three weeks. The normal saline (NS) group was immunized s.c. only with CpG ODN 1826 (30 μg/mouse) once a week for three weeks. Five days after the last injection, spleen lymphocytes were isolated and cultured at the concentration of 5 × 10^6 cells/mL in RPMI 1640 medium. These cells were induced by the same mutant peptides (10 μg/mL) that were used for in vivo stimulation and mIL-2 (30 U/mL) for a week. Intracellular cytokine staining assay (ICS) and cytotoxic assay (E: T ratios = 20:1, 40:1, 80:1) were performed after a week induced in vitro [22].
To test the MUT peptides stimulation of CTL response in vivo, peptide-specific T cells induced from Tg mice were co-cultured with tumor cell lines transfected with WT or MUT minigenes, as described in the in vitro assay. […] Intracellular cytokines were marked by anti-mouse IFN-γ or anti-mouse granzyme B, respectively, and analyzed by flow cytometry (BD FACSCelesta™, USA).

DC50 (dissociation complex 50) [2] [h]	Sequence	IFN-γ release of MUT peptide-induced T cells, MUT versus WT peptide-loaded T2A2 cells [1]	processing and presentation of MUT peptide by transfected cells, recognized by CTLs [3]	IFN-γ secretion of CTLs (IFN-γ+ CD8+ T cells) [4] [%]
>6	ILWRQDINL [NFE2L2-D13N]	immunogenic	endogenously processed and presented by transfected cells	1.5
>6	LLGPNSFEV [TP53-R267P]	immunogenic	endogenously processed and presented by transfected cells	1.1
>4	QVTDFLAPL [PCLO-E4090Q]	immunogenic	endogenously processed and presented by transfected cells	–
